# Measured values taken from PubChem BioAssay (NCI).
#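 Assay format: 96-well plates, 48-hour exposure. Abbreviation: GI50, concentration required for 50% inhibition of growth. TGI is the concentration that stops growth completely.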
# System: PC-3 prostate
# Assay: NCI anticancer screen, dose series, 48 h
Structure (SMILES),GI50,TGI
Cc1n(Cc2ccc3ccccc3c2)cc[n+]1Cc1ccc2ccccc2c1,1.06 µM,11.6 µM
O=C(O)Cc1c(O)ccc2ccccc12,–,> 100 µM
O=C1/C(=C\c2cccn2Cc2ccccc2)c2ccccc2N1c1c(Cl)cccc1Cl,5.93 µM,> 100 µM
Cc1sc2nc(NCCc3c[nH]c4ccc(Cl)cc34)[nH]c(=O)c2c1C,2.05 µM,8.91 µM
CSC1(CC(=O)N(C)C)C(=O)Nc2ccccc21 (stereo not drawn),–,> 100 µM
COc1cc(/C=C2\C(=O)Nc3ccc(F)cc32)cc(OC)c1OC,40.4 µM,> 100 µM
C#C[C@]1(O)CC[C@H]2[C@@H]3CC=C4c5sc(Nc6ccccc6)nc5CC[C@]4(C)[C@H]3CC[C@@]21C,1.22 µM,43.5 µM
O=C(O)c1c(-c2nccc3ccccc23)[nH]c(-c2ccccc2)c1S(=O)(=O)O,–,> 100 µM
COc1ccc(/C=c2/sc3n(c2=O)C(c2ccc(OC)c(OC)c2)C2=C(N=3)c3cc(F)ccc3OC2)cc1 (stereo not drawn),17.6 µM,> 100 µM
Cc1cn2c(/C=C3/C(=O)Nc4ccccc43)c(-c3ccc(Cl)cc3)nc2s1,9.81 µM,16.9 µM
O=C(O)c1cc(O)c2c(c1)C(C1c3cc(C(=O)O)cc(O)c3C(=O)c3c(OC4OC(CO)C(O)C(O)C4O)cccc31)c1cccc(OC3OC(CO)C(O)C(O)C3O)c1C2=O (stereo not drawn),> 100 µM,> 100 µM
O=C(CN(C1CCCCC1)C1CCCCC1)Nc1ccc(S(=O)(=O)c2ccc(NC(=O)CN(C3CCCCC3)C3CCCCC3)cc2)cc1,0.985 µM,2.35 µM
O=c1[nH]c2cc(Cl)ccc2n1C1CCN(CCCC(c2ccc(F)cc2)c2ccc(F)cc2)CC1,1.69 µM,4.4 µM
Cc1c[n+](Cc2ccc3ccccc3c2)cn1Cc1ccc2ccccc2c1,1.27 µM,2.84 µM
Nc1nc(Br)nc2c1ncn2C1CC(O)C(CO)O1 (stereo not drawn),> 20.1 µM,> 100 µM
Nc1nc(Nc2ccccc2)c2ncn(Cc3cc4c(cc3Br)OCO4)c2n1,0.0801 µM,46.9 µM

Structure (SMILES),GI50,TGI
CCOC(=O)N1CCN(C(=O)c2ccc(C(F)(F)F)nc2Nc2cc(Cl)ccc2C)CC1,7.71 µM,> 100 µM
Cc1ccc(Nc2nc(N)c(C(=O)c3ccc(C#N)cc3)s2)cc1,0.347 µM,> 100 µM
O=C1c2ccn(CCCCNC(CO)(CO)CO)c2C(=O)c2c1c(O)c1ccccc1c2O,2.83 µM,7.57 µM
COc1ccc(-c2cc(-c3cccn3C)c(C#N)c(N)n2)cc1OC,99 µM,> 100 µM
CN1CCc2c(Sc3ccc(C(=O)NO)cc3)c3ccccc3n2C1,1.63 µM,4.01 µM
COc1ccc(CNc2c3ccccc3nc3ccccc23)cc1OC,2.58 µM,9.97 µM
CN(C)c1ccc2nc3ccc(=O)cc-3sc2c1,0.0726 µM,> 100 µM
CC(=O)c1c(CBr)n([O-])c2ccccc2[n+]1=O,15.5 µM,33.1 µM
O=C(Nc1ccc(Cl)cc1F)c1cc(Br)ccc1O,1.83 µM,8.53 µM
C#CC(=O)Nc1cccc(Nc2nc3c(c(NCc4ccccc4)n2)CCCC3)c1,< 0.01 µM,0.0344 µM
Nc1c(C(=O)N/N=C/c2ccc(-c3ccc(Cl)cc3)o2)cnn1-c1ccnc2c(C(F)(F)F)cccc12,35 µM,> 100 µM
CCN(CC)CC(C)(C)C(=O)/C=C/c1ccc(Cl)c(Cl)c1,1.85 µM,3.51 µM
CCN(CC)CCNCC(=O)Oc1ccc(/C=C/C(=O)CC(=O)/C=C/c2ccc(OC(=O)CNCCN(CC)CC)c(OC)c2)cc1OC,4.69 µM,> 100 µM
O=C(O)c1cccc(OCCO)c1,–,> 100 µM
COc1ccc(C2C(C#N)=C(N)OC3=C2COc2ccc(F)cc23)cc1OC (stereo not drawn),23.2 µM,93.6 µM
